Laboratory results taken from PubChem BioAssay (NCI).
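Test compounds were applied to cells in 96-well plates for 48 hours at 5 doses. At the GI50, growth is halved. TGI: concentration producing complete growth inhibition.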 *1 amine or outer side, *2 acyl side, *3 side chain or, on linkers, in order; H or OH if unused. Where a SMILES comes first, the peptide text is derived from it. Bridges are numbered along the chain shown (N, C = ends). [ ]: non-standard residue; d: D form. The star is where a group is joined. Phe(3,5-F2) = N[C@@H](Cc1cc(F)cc(F)c1)C(=O)O; Pro(4R-Me) = C[C@H]1CN[C@H](C(=O)O)C1; aThr = C[C@H](O)[C@H](N)C(=O)O; Pip = O=C(O)[C@@H]1CCCCN1; X10 = Fc1cc(C2CC2)ccc1N*; CO = O=C([*:1])[*:2]

Experiments:
Assay in all cases: inhibition of tumour cell growth, NCI panel, 48 h
[1] = system: ACHN renal
[2] = system: COLO 205 colon
[3] = system: HCT-15 colon
[4] = system: K-562 leukemia
[5] = system: MDA-MB-435
[6] = system: MOLT-4 leukemia
[7] = system: SF-295 CNS
[8] = system: SF-539 CNS
[9] = system: SK-MEL-5 melanoma
[10] = system: SNB-19 CNS

SMILES | GI50 [1] [nM] | TGI [1] [µM] | GI50 [2] [nM] | TGI [2] [µM] | GI50 [3] [nM] | TGI [3] [µM] | GI50 [4] [nM] | TGI [4] [µM] | GI50 [5] [nM] | TGI [5] [µM] | GI50 [6] [nM] | TGI [6] [µM] | GI50 [7] [nM] | TGI [7] [µM] | GI50 [8] [nM] | TGI [8] [µM] | GI50 [9] [nM] | TGI [9] [µM] | GI50 [10] [nM] | TGI [10] [µM]
O=C(Nc1ccc(-n2ccc3c(NC(=O)c4ccccc4)nccc32)cc1)c1ccc(Cl)c(C(F)(F)F)c1 | 487 | 15.4 | 1830 | 11 | 27.5 | 2.83 | 213 | > 17.2 | 674 | 6.52 | 351 | > 20.7 | 293 | 10 | 273 | 14.4 | 132 | 8.67 | 1180 | 13.1
COC(=O)CC[N+]1=CCC(c2ccccc2)(c2ccccc2)O1 | – | > 100 | – | > 100 | – | > 100 | – | > 100 | – | > 100 | – | > 100 | – | > 100 | – | > 100 | – | > 100 | – | > 100
OCc1cc2ccccc2c2c3c(ccc12)OCO3 | 32100 | 141 | 18800 | 37.4 | 32500 | – | 40000 | – | 39300 | 160 | 28500 | 82.3 | 33800 | 154 | 23200 | 87 | 20600 | 59.9 | 35600 | 286
Cc1cnc(NCCCN(C)C)c2c1[nH]c1ccc3cc(O)ccc3c12 | – | 4.89 | – | 1.57 | – | 17 | – | 3.68 | – | 2.3 | – | 0.534 | – | 2.89 | – | 1.64 | – | 2.2 | – | 3.12
FC(F)(F)c1cccc(Nc2nc(-c3ccccc3)nc3ncccc23)c1 | 3300 | 11.4 | 4070 | 13.9 | 3280 | 23.7 | 3170 | 17.9 | 3770 | 22.8 | 3110 | 9.04 | 2610 | 8.34 | 5060 | 17.5 | 4040 | 30.8 | 7680 | 37.3
C[C@@H]1C[C@H]2C(=O)O[C@@H](C)[C@H](NC(=O)[C@H](Cc3cc(F)cc(F)c3)NC(=O)Nc3ccc(C4CC4)cc3F)C(=O)N3CCC[C@H]3C(=O)N3CCCC[C@H]3C(=O)N[C@@H](C)C(=O)N2C1 ({X10-CO}-[Phe(3,5-F2)][aThr]P[Pip]A[Pro(4R-Me)]; ester 2-C) | 98.4 | 8.12 | 35.1 | 1.19 | 79.6 | 5.28 | 34.6 | > 52.3 | 42.3 | 2.71 | 205 | > 42.7 | 43.8 | 1.57 | 75.2 | 3.56 | 46.1 | 1.24 | 40.4 | > 46.9
NS(=O)(=O)OC[C@@H]1C[C@@H](n2ccc3c(NC4CCc5ccccc54)ncnc32)C[C@@H]1O (stereo partly drawn) | 332 | 1.8 | 524 | > 51.2 | 2590 | 70.1 | 405 | 32.3 | 5750 | > 100 | 370 | 11.1 | 337 | 4.52 | 1280 | 20.3 | 305 | 17.2 | 12500 | > 100
COC([CH2][Hg][n]1cnc2c1c(=O)n(C)c(=O)n2C)CN1C(=O)c2ccccc2S1(=O)=O (stereo not drawn) | > 100000 | > 100 | > 100000 | > 100 | > 100000 | > 100 | > 100000 | > 100 | > 100000 | > 100 | > 100000 | > 100 | > 100000 | > 100 | > 100000 | > 100 | > 100000 | > 100 | > 100000 | > 100
Fc1[nH]nc2ccc([C@@H]3Nc4ccc5[nH]ncc5c4[C@H]4C5CCC(C5)[C@@H]34)cc12 (stereo partly drawn) | 1520 | 13.6 | 801 | 4.81 | 495 | 13.1 | 324 | 13.9 | 286 | 1.08 | 651 | 12.7 | 414 | 10.6 | 854 | 3.94 | 1940 | 12.4 | 1220 | 18.1
COc1cc(/C=N\NC(=O)CN2CCN(c3cc4c(cc3F)c(=O)c(C(=O)N/N=C/c3cc(OC)c(OC)c(OC)c3)cn4C3CC3)CC2)cc(OC)c1OC | > 100000 | > 100 | 450 | > 23.2 | > 100000 | > 100 | 363 | > 100 | 237 | 0.559 | 331 | > 100 | 685 | 5.58 | 212 | 0.522 | 417 | 5.1 | 445 | > 100
CC(=O)OC1OC([C@@H]2c3cccc(O)c3C(=O)c3c(O)cc(C)cc32)C(O)C(O)C1O (stereo partly drawn) | 31.9 | 0.282 | 42.9 | 2.68 | 30.5 | 1.46 | 21.6 | 1.39 | < 18.5 | 0.691 | 38.4 | 0.662 | < 16.6 | 0.119 | 41.9 | 1.47 | < 11.9 | 0.0294 | 392 | 21.4
NS(=O)(=O)c1ccc2c(c1)OCCOCCOCCOCCO2 | – | > 100 | – | > 100 | – | > 100 | – | > 100 | – | > 100 | – | > 100 | – | > 100 | – | > 100 | – | > 100 | – | > 100
Nc1c(C(=O)c2cccc(CCS(N)(=O)=O)c2)cnn1-c1ccc(F)cc1 | > 25000 | > 25 | > 25000 | > 25 | > 25000 | > 25 | > 25000 | > 25 | > 25000 | > 25 | > 25000 | > 25 | > 25000 | > 25 | > 25000 | > 25 | > 16700 | > 25 | > 25000 | > 25
